These results are taken from article PMC12059629, “N-Terminal domain homologs of the orange carotenoid protein increase quenching of cyanobacterial phycobilisomes” (Plant Physiology, 2024).

The target of this assay is T1, HCP4 (AnHCP4, holo-HCP4) (Nostoc sp. PCC 7120 = FACHB-418, UniProt Q8YMJ2).
T1 construct: gene all4941; C-terminal His-tag (pCDF-all4941-Ctag), expressed in E. coli BL21(DE3) with pAC-CANthipi; holo separated from apo on MonoQ
T1 sequence (Q8YMJ2 1-171): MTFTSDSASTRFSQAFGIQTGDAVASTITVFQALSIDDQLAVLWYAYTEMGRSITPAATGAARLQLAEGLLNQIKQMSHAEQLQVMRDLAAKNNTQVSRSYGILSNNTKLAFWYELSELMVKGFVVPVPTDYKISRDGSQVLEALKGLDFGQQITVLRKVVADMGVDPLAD
As to the kind of experiment: holoprotein purified from carotenoid-producing E. coli; separated from apoprotein by anion exchange; absorbance at […] nm. To be noted: 50 mM Tris pH 8; 1:1 HCP4:CAN ratio used for quantification. Type of assay: binding.

Take `CC1=C(/C=C/C(C)=C/C=C/C(C)=C/C=C/C=C(C)/C=C/C=C(C)/C=C/C2=C(C)C(=O)CCC2(C)C)C(C)(C)CCC1=O` [canthaxanthin]: the “holoprotein purified from carotenoid-producing E. coli; separated from apoprotei” value was “For HCP4, the holoprotein was eluted in the flow through and column wash”.
